Measurements: patent US20230125380A1, “Topical Compositions Comprising IRAK4 Inhibitors for Use in Treating Dermatological Conditions Characterised by Inflammation” (Dermira, Inc., priority 2019, published 2023)

Legend:
[1] = test system: human surgical skin (skin resident immune cells), LPS; test: skin Resident Immune Cell Assay (sRICA), topical screening, TNFα protein expression; type: cell-based; conditions: mean TNFα level in LPS treated samples set to 100%
Procedure: A skin Resident Immune Cell Assay (sRICA) was used to test compounds for reduction of inflammation. In this model, human surgical skin waste was cultured in a transwell system, with the dermis in contact with cell culture media and the stratum corneum exposed to air. To perform the assay, each human skin sample was defatted and dermatomed to 750 μm. Next, 8 mm punch biopsies were obtained and placed in a membrane transwell. The transwells were inserted into culture wells with complete media, and a cocktail of cytokines and antibodies were added to promote skin resident immune cell polarization. The transwells were treated with LPS as a positive control, a vehicle as a negative control, and various dual IRAK/TrkA inhibitors. TNFα protein expression was measured and the mean TNFa protein level in the LPS treated samples was set to 100%.
Overall results for all tested compounds are summarized below in Table 1. Results are expressed as a percentage of TNFα expression relative to the LPS treated sample.

[2] = test system: rosacea lesional (LS) skin; test: MesoScale Discovery (MSD) immunoassay of treated lesional papulopustular rosacea biopsies; type: cell-based, human
Procedure: (§1) Five patients with mild-moderate, untreated, papulopustular rosacea (PPR) were enrolled and completed the study. Each patient donated 3 punch biopsies: 1 non-lesional (NL) and 2 lesional (LS) papules. Each biopsy was bisected, resulting in a total of 6 biopsy pieces. NL tissue was left untreated. LS tissue was either left untreated (vehicle), treated with a dual IRAK/TrkA inhibitor according to the present disclosure (1 uM or 500 uM) or clobetasol (1 uM). Tissue was cultured in media at 37 C, 5% CO2 for 24 hours. After culture, the tissue was submerged in RNAlater for subsequent RNA isolation and RNA seq, and conditioned cell media was collected into 2×500 ul aliquots for proteomic analysis.
Next, the protein expression results obtained using the OLink platform were verified using MesoScale Discovery (MSD). MSD involves coating of carbon electrodes with multiple capture antibodies each coated onto discrete spots in the same plate, and is a multiplex platform that allows for absolute quantification of protein expression, as measured in pg/mL. For MSD quantification, 150 μl of conditioned cell media was analyzed using MSD platform using the human Cytokine 30-plex kit:
The protein expression analysis was repeated using the MSD platform.

[3] = test system: rosacea lesional (LS) skin; test: OLink proteomics of treated lesional papulopustular rosacea biopsies; type: cell-based, human; conditions: LS rosacea biopsy
Procedure: as §1
Proteomic analysis included use of the OLink platform. OLink proteomics, includes immunoassay, extension, preamplification, and detection by microfluidic qPCR, and has a high multiplex ability, but not absolute quantification of protein (only relative expression).
For the OLink proteomics platform, 40 μl of conditioned cell media was sent to OLINK proteomics for evaluation on their human Inflammation Panel (92 proteins):
Protein expression was measured from NL samples, untreated LS samples, and LS samples treated with the compound of Formula (Ia) at 1 μM, the compound of Formula (Ia) at 0.5 μM, or clobetasol at 1 μM. […] CXCL1, β-NGF, LIF, TGF-alpha, IL-8, and IL-6 are all proteins that have reduced expression in NL compared to LS samples.

[4] = test system: rosacea lesional (LS) skin; test: RNAseq of treated lesional papulopustular rosacea biopsies; type: cell-based, human; conditions: LS rosacea biopsy, 24 hours culture, 1 μM and 0.5 μM
Procedure: as §1, with “LS tissue was either left untreated (vehicle), treated with a dual IRAK/TrkA inhibitor according to the present disclosure (1 uM or 500 uM) or clobetasol (1 uM).” left out
MMP-1 results are shown in FIG. 4A (RNAseq) and FIG. 4B (OLink); CXCL5 results are shown in FIG. 5A (RNAseq) and FIG. 5B (OLink); and IL-1(3 results are shown in FIG. 6A (RNAseq) and FIG. 6B (OLink).

[5] = 24 hours following treatment, 1 μM and 0.5 μM

`CNCC1CN(c2nn(C)cc2NC(=O)c2coc(-c3ccnc(NCC(F)(F)F)c3)n2)C(=O)C1(C)C` (centres unmarked) [drawing 29] was tested, and the “TNFα Protein Expression (% relative to positive control)” value [1] was 92.45%.
`C[C@H]1CCN(c2nn(C)cc2NC(=O)c2coc(-c3ccnc(NCC(F)(F)F)c3)n2)C1=O` was tested, and the “TNFα Protein Expression (% relative to positive control)” value [1] was 92.45%.
`Cn1cc(NC(=O)c2coc(-c3ccnc(NCC(F)(F)F)c3)n2)c(N2CCNC2=O)n1` was tested, and the “TNFα Protein Expression (% relative to positive control)” value [1] was 59.13%.
`Cn1cc(NC(=O)c2coc(-c3ccnc(NCC(F)(F)F)c3)n2)c(N2CC(CNC3CC3)C(C)(C)C2=O)n1` (centres unmarked) was tested, and the “TNFα Protein Expression (% relative to positive control)” value [1] was 72.95%.
With `CC(C)N1CCN(c2nn(C)cc2NC(=O)c2coc(-c3ccnc(NCC(F)(F)F)c3)n2)C1=O` the “TNFα Protein Expression (% relative to positive control)” value [1] was 90.44%.
For `CC(C)CN1CCN(c2nn(C)cc2NC(=O)c2coc(-c3ccnc(NCC(F)(F)F)c3)n2)C1=O`, the “TNFα Protein Expression (% relative to positive control)” value [1] was 89.24%.
`Cn1cc(NC(=O)c2coc(-c3ccnc(NCC(F)F)c3)n2)c(N2CCN(CCO)C2=O)n1` was tested, and the “TNFα Protein Expression (% relative to positive control)” value [1] was 72.75%.
In the case of `CNCC1CN(c2nn(C)cc2NC(=O)c2coc(-c3ccnc(NCC(F)(F)F)c3)n2)C(=O)C1(C)C` (centres unmarked) [drawing 30], the “TNFα Protein Expression (% relative to positive control)” value [1] is reported as 93.64%.
For `CN(C)CC1CN(c2nn(C)cc2NC(=O)c2coc(-c3ccnc(NCC(F)(F)F)c3)n2)C(=O)C1(C)C` (centres unmarked), the “TNFα Protein Expression (% relative to positive control)” value [1] was 86.94%.
In the case of `Cn1cc(NC(=O)c2coc(-c3ccnc(NCC4CC4)c3)n2)c(N2CCN(CCO)C2=O)n1`, the “TNFα Protein Expression (% relative to positive control)” value [1] is reported as 74.41%.
In the case of `C=C(CC1=CC(C)C=C1C1CCC(CCC)C1=C)C1=CCC(c2cccc(CCC(C)(C)C)c2)=C1` (centres unmarked), the “TNFα Protein Expression (% relative to positive control)” value [1] is reported as 64.03%.
`Cn1cc(NC(=O)c2coc(-c3ccnc(NCC(F)(F)F)c3)n2)c(N2CCN(CCO)C2=O)n1` [Formula (Ia)] was tested, and the “protein expression profile (MSD)” value ([2]; compared with NL and LS profiles) was “more similar to the NL profile versus the LS profile”, the “IL-10 protein expression (MSD)” value ([2]; p=0.002) was “decreased expression” and the “IL-8 protein expression (MSD)” value ([2]; p=0.056) was “decreased expression”. For the same molecule, the “MCP-1 protein expression (MSD)” value ([2]; p=0.09) was “decreased expression”, the “IL-4 protein expression (MSD)” value ([2]; p=0.12) was “decreased expression” and the “IL-6 protein expression (MSD)” value ([2]; p=0.13) was “decreased expression”. For the same molecule, the “IL-5 protein expression (MSD)” value ([2]; p=0.2) was “decreased expression”, the “CXCL6 protein expression (OLink)” value ([3]; 24 hours following treatment) was “decreased expression” and the “IL-24 protein expression (OLink)” value ([3]; 24 hours following treatment) was “decreased expression”. For the same molecule, the “MCP-1 protein expression (OLink)” value ([3]; 24 hours following treatment) was “decreased expression”, the “NRTN protein expression (OLink)” value ([3]; 24 hours following treatment) was “decreased expression” and the “CXCL1 protein expression (OLink)” value [3, 5] was “statistically significant decrease in expression”. The “IL-6 protein expression (OLink)” value [3, 5] was “statistically significant decrease in expression”, the “IL-8 protein expression (OLink)” value [3, 5] was “statistically significant decrease in expression” and the “LIF protein expression (OLink)” value [3, 5] was “statistically significant decrease in expression”. For the same molecule, the “TGF-alpha protein expression (OLink)” value [3, 5] was “statistically significant decrease in expression”, the “β NGF protein expression (OLink)” value [3, 5] was “statistically significant decrease in expression” and the “CXCL5 protein expression (OLink)” value ([3]; 24 hours, 1 μM and 0.5 μM) was “downregulated”. The “MMP-1 protein expression (OLink)” value ([3]; 24 hours, 1 μM and 0.5 μM) was “downregulated”, the “CXCL5 RNA expression (RNAseq)” value [4] was “significantly downregulated” and the “IL-1β RNA expression (RNAseq)” value [4] was “significantly downregulated”. For the same molecule, the “MMP-1 RNA expression (RNAseq)” value [4] was “significantly downregulated”.
In the case of `CC1(C)CCN(c2nn(C3COC3)cc2NC(=O)c2coc(-c3ccnc(NCC(F)(F)F)c3)n2)C1=O`, the “TNFα Protein Expression (% relative to positive control)” value [1] is reported as 97.84%.
For `CC1C=C(CC(=O)c2coc(-c3ccnc(NCC(F)(F)F)c3)c2)C(C2CC(C)[C@H](C)C2=O)=C1` (some centres unmarked), the “TNFα Protein Expression (% relative to positive control)” value [1] was 67.49%.
